Laboratory results as given in patent US9359392B2, “Dendrimer scaffolds for pharmaceutical use” (Victoria Link Limited, priority 2012, dated 2016).

How the values were obtained:
sheep spleen cells = assay: Assessment of potential cytotoxicity: percentage cell viability versus a PBS control; format: cell-based; conditions: 36.5° C.
Description: The potential cytotoxic properties of compounds 12, 13 and 14 were evaluated by measuring percentage cell viability of sheep spleen cells versus a PBS control after 24 h and 48 h exposure to 0.01, 0.1 and 1 mg/mL solutions of each compound in PBS at 36.5° C.

[1] = Water relaxivity measurements (T1, inversion recovery NMR); format: physicochemical; conditions: 500 MHz (11.75 T), 30° C., aqueous solution
Description: Water relaxivity measurements provide an indication of whether a material will increase contrast in MRI imaging techniques. Water relaxivity measurements were performed in aqueous solutions. T1 measurements were made on a 500 MHz (11.75 T) Bruker NMR using a standard inversion recovery sequence (180-t-90) at 30° C. The relaxivity of water in D2O in the presence of (meglumine)2[Gd(III)(DPTA)(OH2)]

[2] = Stability under forcing degradation conditions with HPLC monitoring; format: physicochemical
Excerpt: Assessment of Potential Cytotoxicity

[3] = comparator salt, stated without test; cited from earlier work

| relaxivity of water in D2O [1] | Compound | Cell viability (sheep spleen cells; 0.01 mg/mL in PBS, 24 h) | Cell viability (sheep spleen cells; 0.01 mg/mL in PBS, 48 h) | Cell viability (sheep spleen cells; 0.1 mg/mL in PBS, 24 h) | Cell viability (sheep spleen cells; 0.1 mg/mL in PBS, 48 h) | Cell viability (sheep spleen cells; 1 mg/mL in PBS, 24 h) | Cell viability (sheep spleen cells; 1 mg/mL in PBS, 48 h) | other results |
| --- | --- | --- | --- | --- | --- | --- | --- | --- |
| – | 2-Aminoacetic acid(N,N):{6,9-diaza-3-oxa-7-oxononanyl(9,9)}2x,4x,8x^G1,G2,G36:(5-amino-3-oxapentanyl)16-cascadane [compound 12] | 94% | 84% | 92% | 85% | 99% | 87% | – |
| 3.84 mM⁻¹ s⁻¹ | CNC[C@H](O)[C@@H](O)[C@H](O)[C@H](O)CO.CNC[C@H](O)[C@@H](O)[C@H](O)[C@H](O)CO.O=C([O-])CN(CCN(CC(=O)[O-])CC(=O)O)CCN(CC(=O)[O-])CC(=O)O.[Gd+3] [(meglumine)2[Gd(III)(DPTA)(OH2)], reference compound] | – | – | – | – | – | – | – |
| – | 2-Aminoacetic acid(N,N):{6,9-diaza-3-oxa-7-oxononanyl(9,9)}2x,4x,8x^G1,G2,G3:(6-aza-3,11-dioxa-7,10-dioxoundecanyl)16-cascadane [compound 13] | 107% | 97% | 104% | 98% | 106% | 100% | degradation ([2]; 24 h in 1% H2O2 at 20° C.): 63%; degradation ([2]; 24 h in 1 M HCl at 20° C.): 12%; degradation ([2]; 24 h in 1 M NaOH at 20° C.): 30%; degradation ([2]; 24 h neat at 40° C.): No observable degradation; degradation ([2]; 24 h neat at 80° C.): 41% |
| 1.20 mM⁻¹ s⁻¹ | Gadolinium complex of 2-aminoacetic acid(N,N):{6-aza-3-oxahexanyl(6,6)}2x^G1: (carboxymethyl)4-cascadane [34-Gd] | – | – | – | – | – | – | – |
| – | O=C([O-])CN(CCN(CC(=O)[O-])CC(=O)[O-])CCN(CC(=O)[O-])CC(=O)[O-].[Gd+3].[Na+].[Na+] [Gd-DPTA disodium salt] | – | – | – | – | – | – | water solubility [3]: sparingly water soluble |
| – | 2-Aminoacetic acid(N,N):{6,9-diaza-3-oxa-7-oxononanyl(9,9)}2x,4x,8x^G1,G2,G3:(6-aza-3-oxa-7-oxooctanyl)16-cascadane [compound 14] | 104% | 99% | 104% | 97% | 97% | 90% | – |
